According to the supplement of paper PMC10307832:

How the values were obtained:
Assay in all cases: relative viability (nuclei count vs DMSO), 5 days (fraction); higher = more cells survive
[1] = compound: CC1=C(C(=NN1)C)CC2=C(C3=C(S2)N(C(=O)N(C3=O)C)CC(C)C)C(=O)N4C[C@@H](CO4)O + Nc1ncn([C@H]2C[C@H](O)[C@@H](CO)O2)c(=O)n1 [Decitabine] (partner 2 µM)
Outline: (§1)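 Values are medians from duplicate plates. Each reflects relative viability, defined as the nuclei count of treated wells over that of vehicle wells. Lung cancer cell lines in 1536-well plates were pin-tool dosed one day after seeding with one drug alone or with a fixed anchor-drug dose plus five library-drug doses (not always all listed) in √10 steps, then fixed, stained and imaged at 4× after 5 days.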

IDH-C35 + AZD7762 = compound: Cc1ccccc1C(C(=O)NC1CCCCC1)N(C(=O)Cn1ccnc1C)c1cccc(F)c1 [IDH-C35] + NC(=O)Nc1cc(-c2cccc(F)c2)sc1C(=O)N[C@H]1CCCNC1 [AZD7762] (partner 0.2 µM)
Outline: as §1

IDH-C35 + Trametinib = compound: Cc1ccccc1C(C(=O)NC1CCCCC1)N(C(=O)Cn1ccnc1C)c1cccc(F)c1 [IDH-C35] + CC(=O)Nc1cccc(-n2c(=O)n(C3CC3)c(=O)c3c(Nc4ccc(I)cc4F)n(C)c(=O)c(C)c32)c1 [Trametinib] (partner 0.02 µM)
Outline: as §1

[2] = compound: CC1=C(C(=NN1)C)CC2=C(C3=C(S2)N(C(=O)N(C3=O)C)CC(C)C)C(=O)N4C[C@@H](CO4)O + CS(=O)(=O)N1CCN(Cc2cc3nc(-c4cccc5[nH]ncc45)nc(N4CCOCC4)c3s2)CC1 [Pictilisib] (partner 1 µM)
Outline: as §1

| Cell Line | relative viability ([1]; first compound 0.0025 µM) | relative viability ([1]; first compound 0.007906 µM) | relative viability ([1]; first compound 0.025 µM) | relative viability ([1]; first compound 0.07906 µM) | relative viability ([1]; first compound 0.25 µM) | relative viability (IDH-C35 + AZD7762; first compound 0.08 µM) | relative viability (IDH-C35 + AZD7762; first compound 0.253 µM) | relative viability (IDH-C35 + AZD7762; first compound 0.8 µM) | relative viability (IDH-C35 + AZD7762; first compound 2.53 µM) | relative viability (IDH-C35 + AZD7762; first compound 8 µM) | relative viability (IDH-C35 + Trametinib; first compound 0.08 µM) | relative viability (IDH-C35 + Trametinib; first compound 0.253 µM) | relative viability (IDH-C35 + Trametinib; first compound 0.8 µM) | relative viability (IDH-C35 + Trametinib; first compound 2.53 µM) | relative viability (IDH-C35 + Trametinib; first compound 8 µM) | relative viability ([2]; first compound 0.0025 µM) | relative viability ([2]; first compound 0.007906 µM) | relative viability ([2]; first compound 0.025 µM) | relative viability ([2]; first compound 0.07906 µM) | relative viability ([2]; first compound 0.25 µM) |
| --- | --- | --- | --- | --- | --- | --- | --- | --- | --- | --- | --- | --- | --- | --- | --- | --- | --- | --- | --- | --- |
| 201T | 0.87 | 0.866 | 0.795 | 0.865 | 0.82 | 0.62 | 0.638 | 0.615 | 0.514 | 0.603 | 0.727 | 0.7 | 0.718 | 0.701 | 0.676 | 0.708 | 0.704 | 0.688 | 0.653 | 0.679 |
| A549 | 0.237 | 0.284 | 0.252 | 0.232 | 0.343 | – | – | – | – | – | – | – | – | – | – | 0.391 | 0.505 | 0.538 | 0.52 | 0.54 |
| A-427 | 0.592 | 0.576 | 0.623 | 0.605 | 0.604 | 0.709 | 0.725 | 0.687 | 0.679 | 0.707 | 0.791 | 0.784 | 0.77 | 0.722 | 0.705 | 0.733 | 0.685 | 0.679 | 0.843 | 0.826 |
| ABC-1 | 0.988 | 0.899 | – | 0.889 | 0.779 | 0.779 | 0.874 | 0.739 | 0.744 | 1.01 | – | – | – | – | – | 0.874 | 0.844 | 0.693 | 0.948 | 0.737 |
| BEN | 0.626 | 0.708 | 0.613 | 0.622 | 0.614 | 0.572 | 0.772 | 0.679 | 0.586 | 0.683 | 0.954 | 1.04 | 1.02 | 1.16 | 1.16 | 0.557 | 0.512 | 0.435 | 0.593 | 0.556 |
| CAL-12T | – | – | – | – | – | 0.545 | 0.569 | 0.686 | 0.589 | 0.577 | 0.389 | 0.434 | 0.371 | 0.36 | 0.354 | 0.502 | 0.57 | – | 0.588 | 0.518 |
| COR-L23 | 0.439 | 0.41 | 0.406 | 0.304 | 0.381 | – | – | – | – | – | 0.599 | 0.639 | 0.591 | 0.565 | 0.54 | 0.806 | 0.794 | 0.522 | 0.589 | 0.635 |
| COR-L 105 | 0.574 | 0.632 | 0.653 | 0.644 | 0.615 | – | – | – | – | – | 0.444 | 0.451 | 0.446 | 0.485 | 0.39 | 0.406 | 0.445 | 0.376 | 0.398 | 0.356 |
| Calu-6 | – | – | – | – | – | – | – | – | – | – | – | – | – | – | – | 1.01 | 0.939 | 0.887 | 0.949 | 0.981 |
| ChaGo-K-1 | 0.506 | 0.509 | 0.508 | 0.536 | 0.553 | 0.97 | 0.928 | 0.899 | 0.819 | 0.818 | 0.897 | 0.878 | 0.944 | 0.844 | 0.899 | 0.794 | 0.608 | – | 1.01 | 1.04 |
| EBC-1 | – | – | – | – | – | – | – | – | – | – | – | – | – | – | – | 0.396 | 0.333 | 0.447 | 0.493 | 0.444 |
| EKVX | 0.365 | 0.311 | 0.309 | 0.267 | 0.369 | 0.75 | 0.819 | 0.725 | 0.803 | 0.756 | 0.398 | 0.279 | 0.37 | 0.353 | 0.277 | 0.544 | 0.485 | 0.457 | 0.449 | 0.42 |
| EMC-BAC-2 | 1.03 | 1.01 | 1.03 | 1.03 | 1.03 | 1.1 | 1.12 | 1.16 | 1.18 | 1.16 | 0.888 | 0.816 | 0.837 | 0.823 | 0.833 | 0.512 | 0.573 | 0.521 | 0.505 | 0.594 |
| EPLC-272H | 0.374 | 0.346 | 0.369 | 0.354 | 0.352 | 0.387 | 0.266 | 0.215 | – | 0.305 | 0.259 | 0.308 | 0.324 | – | 0.257 | 0.317 | 0.293 | 0.29 | 0.314 | 0.384 |
| H3255 | 0.567 | 0.446 | 0.568 | 0.651 | 0.641 | 0.814 | 0.947 | 0.924 | 0.88 | 0.829 | 0.699 | 0.692 | 0.536 | 0.548 | 0.59 | 0.523 | 0.473 | 0.43 | 0.45 | 0.62 |
| HARA | 0.578 | 0.578 | 0.653 | 0.581 | 0.524 | 0.362 | 0.422 | 0.318 | 0.22 | 0.383 | 0.562 | 0.649 | 0.601 | 0.56 | 0.76 | 0.473 | 0.372 | 0.369 | 0.506 | 0.283 |
| HCC-15 | 0.707 | 0.621 | 0.692 | 0.662 | 0.781 | 1.33 | 1.1 | 1.08 | – | 1.35 | 0.37 | 0.395 | 0.428 | – | 0.371 | 0.76 | 0.911 | 0.846 | 0.782 | 0.856 |
| HCC-44 | 0.978 | 0.961 | 0.949 | 0.912 | 1.06 | 1 | 0.982 | 0.999 | 1.03 | 1.01 | 1.01 | 1.04 | 1.09 | 1.14 | 1.04 | 0.615 | 0.689 | 0.616 | 0.6 | 0.616 |
| HCC-78 | 0.658 | 0.774 | 0.644 | 0.636 | 0.631 | 0.584 | 0.66 | 0.615 | 0.738 | 0.732 | 0.757 | 0.869 | 0.777 | 0.713 | 0.761 | 0.217 | 0.218 | 0.172 | 0.169 | 0.194 |
